Results: ChEMBL document CHEMBL3112412, “Synthesis and receptor binding studies of some new arylcarboxamide derivatives as sigma-1 ligands” (Bioorg Med Chem Lett, 2014)

How the values were obtained:
[1] = Selectivity ratio of Ki for sigma 2 receptor in guinea pig brain to Ki for sigma 1 receptor in rat liver homogenate; assay type: tissue-based
[2] = molecular target: Sigma non-opioid intracellular receptor 1 (Rattus norvegicus, UniProt Q9R0C9); experiment: Displacement of [3H](+)-pentazocine from sigma 1 receptor in rat liver homogenate after 120 mins by liquid scintillation counting; assay type: tissue-based
[3] = Displacement of [3H]-DTG from sigma 2 receptor in guinea pig brain after 120 mins by liquid scintillation counting; parameters: species or system Cavia porcellus

Chain of Sigma non-opioid intracellular receptor 1 (Q9R0C9 whole entry): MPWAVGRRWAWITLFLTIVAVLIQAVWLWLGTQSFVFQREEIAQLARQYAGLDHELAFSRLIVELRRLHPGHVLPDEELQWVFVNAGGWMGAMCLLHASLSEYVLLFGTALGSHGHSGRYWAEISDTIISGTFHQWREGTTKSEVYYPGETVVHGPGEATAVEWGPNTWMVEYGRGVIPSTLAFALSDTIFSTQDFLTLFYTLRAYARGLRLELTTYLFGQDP

Row | Ratio Ki [1] | Ki [2] | Ki [3] | Compound
1 | > 1 | 301 nM | > 500 nM | CCN(CC1CCN(Cc2ccccc2)CC1)C(=O)c1ccc(-c2ccccc2)cc1
2 | 1.36 | 198 nM | 270 nM | CCN(CC1CCN(Cc2ccccc2)CC1)C(=O)c1ccc2ccccc2c1
3 | > 11 | 91 nM | > 1000 nM | CCN(CC1CCN(Cc2ccc(Cl)cc2)CC1)C(=O)c1ccc(Cl)cc1
4 | – | 225 nM | – | CCN(CC1CCN(Cc2ccc(Cl)cc2)CC1)C(=O)c1ccc2ccccc2c1
5 | 1.3 | 217 nM | 283 nM | CCN(CC1CCN(Cc2ccc(Cl)cc2)CC1)C(=O)c1ccc(OC)cc1
6 | – | 192 nM | – | CCN(CC1CCN(Cc2ccccc2)CC1)C(=O)c1ccc(OC)cc1
7 | > 40 | 13.6 nM | > 500 nM | CCN(CC1CCN(Cc2ccc(Cl)cc2)CC1)C(=O)c1ccco1
8 | – | 66.8 nM | – | CCN(CC1CCN(Cc2ccccc2)CC1)C(=O)c1ccccc1
9 | > 4 | 215 nM | > 1000 nM | CCN(CC1CCN(Cc2ccc(Cl)cc2)CC1)C(=O)c1cccc2ccccc12
10 | > 17 | 59.1 nM | > 1000 nM | CCN(CC1CCN(Cc2ccccc2)CC1)C(=O)c1ccc(Cl)cc1
11 | > 3 | 140 nM | > 500 nM | CCN(CC1CCN(Cc2ccc(Cl)cc2)CC1)C(=O)c1ccc(C)cc1
12 | – | 155 nM | – | CCN(CC1CCN(Cc2ccc(Cl)cc2)CC1)C(=O)c1ccccc1
13 | – | 373 nM | – | CCN(CC1CCN(Cc2ccc(Cl)cc2)CC1)C(=O)c1ccc(-c2ccccc2)cc1
14 | > 140 | 21.2 nM | > 3000 nM | CCN(CC1CCN(Cc2ccccc2)CC1)C(=O)c1ccco1
15 | > 6 | 161 nM | > 1000 nM | CCN(CC1CCN(Cc2ccccc2)CC1)C(=O)c1cccc2ccccc12
16 | > 3 | 160 nM | > 500 nM | CCN(CC1CCN(Cc2ccccc2)CC1)C(=O)c1ccc(C)cc1
